Like-named read-outs stand apart in the source and are kept apart here.
Key:
[1] = target: tissue activator obtained from human kidney (Homo sapiens, UniProt P00750); test: biochemical; type: biochemical
[2] = target: T1, vascular plasminogen activator (Homo sapiens, UniProt P00750); test: biochemical
T1 construct: from tissue; host or cells: blood vessel wall

[3] = isoelectric point by polyacrylamide gel isoelectric-point electrophoresis; type: physicochemical; conditions: 7.5% polyacrylamide gel, 8M urea, 1% ampholite
Description: The measurement of the isoelectric point of the purified tissue activator was carried out in a 7.5% polyacrylamide gel containing 8M urea and 1% ampholite in accordance with the method proposed by Mertz et al. [Biochem. Biophys. Res. Commun. 49, 84-91 (1972)]. The sample was solubilized in an 8M urea solution containing 2 mM EDTA and 1% ampholite. Its pH was determined by the method proposed by Finlayson et al. [Anal. Biochem. 40, 292-311 (1971)].

[4] = test system: fibrin; test: fibrinolytic activity by the fibrin-agar plate method, compared with urokinase (UKIU); type: biochemical
Description: The fibrinolytic activity of the tissue activator was compared with that of urokinase and was expressed in terms of the international unit (UKIU). […] The activity of the tissue activator was determined by measuring the lytic areas of diluted samples within the range of 120-200 mm^2. […] The enzymatic activity of the tissue activator was standardized by the enzymatic activity of urokinase and the percentage recovery of the tissue activator and its specific activity relative to UKIU/ml were measured after each of several purification stages.
The non-specific fibrin-resolving activity was measured on a fibrin-agar plate free of plasminogen.

[5] = test system: anti-urokinase IgG; test: affinity chromatography on anti-urokinase IgG-Sepharose column; type: binding, goat
Description: The employed urokinase sample was identical to that analyzed in accordance with the SDS-polyacrylamide gel electrophoresis.
The gel was washed with a 0.02M Tris-HCl solution of pH 7.4 containing 1.0M NaCl at least 20 times in volume that of the gel.

[6] = test system: antivascular plasminogen activator serum; test: double immunodiffusion with antivascular plasminogen activator and anti-urokinase serums; type: binding
Description: Using the antivascular plasminogen activator and anti-urokinase serums, the antigenicities of the both activators were studied in accordance with the double immunodiffusion method. As a result, both urokinase and the vascular plasminogen activator developed individually a single precipitation curve between themselves and their corresponding anti-urokinase or antivascular plasminogen activator serum.
In order to study whether the activators obtained respectively from kidney tissue and the wall of a blood vessel have the same antigenicity as urokinase, the elution profile of proteins and active ingredient of the activator obtained by the antiurokinase IgG-Sepharose affinity chromatographic treatment of the purified activator of Example 1-(6) and the activator of Example 1-(3) was compared with the elution profile of urokinase. […] The protein contained in the effluents was serum albumine incorporated in the commercially available urokinase used in this experiment. […] When the partially-purified sample obtained in Example 1-(3) was poured in the same column, about 15% of the poured activity was adsorbed on the column and eluted with the glycine solution of pH 2.4. […]

[7] = test system: fibrin; conditions: M.W. 33,000 urokinase sample; cited from earlier work
[8] = test system: insolubilized fibrin monomer; test: adsorption onto fibrin-Sepharose column; type: binding, human
[9] = hydrolytic activity against fluorescent 4-methylcoumaryl-7-amide substrates; type: biochemical; conditions: 3093-V, 3095-V, 3096-V, 3097-V
Description: The thus-purified tissue activator was tested with various fluorescent substrates by adding 50 μl of the tissue activator sample in a 0.02M Tris-HCl solution of pH 8.0 containing 0.1M NaCl and 0.02% Tween 80 and 2.0 ml of the substrate in the same buffer solution. The following materials were used as the fluorescent substrates:
Boc-L-valyl-L-prolyl-L-arginine-4-methyl-coumaryl-7-amide;
Carbobenzoxy-L-phenylalanyl-L-arginine 4-methylcoumaryl-7-amide;
L-prolyl-L-phenylalanyl-L-arginine-4-methylcoumaryl-7-amide; and
Glutaryl-glycyl-L-arginine-4-methylcoumaryl-7-amide.
The initial release of 7-amino-4-methylcoumarine (AMC) was measured by a fluorometer at 37° C. in a Shimadzu Fluorospectrophotometer Model RF-520. The fluorometer had been set in such a manner that a radiation of a fluorescent light of 380 nm permitted to emit an excited fluorescent light of 460 nm, and also so adjusted that a 0.1% DMSO solution containing […] gave a relative fluorescent unit of 1.0. The hydrolytic activity of the purified tissue activator was measured using a chromogenic substrate, by adding 200 μl of a tissue activator sample, 200 μl of a 0.1M Tris-HCl solution of pH 8.0 containing 0.1M NaCl and 0.02% Tween 80, and 200 μl of a 3 mM S-2251 solution or a 1 mM S-2288 solution. The initial release of p-nitroaniline was measured by a spectrophotometer at 405 nm and 37° C. in a glass cell. […]

[10] = hydrolytic activity against chromogenic substrate S-2288; type: biochemical; conditions: activator 100 UKIU/ml; 37° C., 405 nm
Description: (§1) The initial release of 7-amino-4-methylcoumarine (AMC) was measured by a fluorometer at 37° C. in a Shimadzu Fluorospectrophotometer Model RF-520. The fluorometer had been set in such a manner that a radiation of a fluorescent light of 380 nm permitted to emit an excited fluorescent light of 460 nm, and also so adjusted that a 0.1% DMSO solution containing […] gave a relative fluorescent unit of 1.0. The hydrolytic activity of the purified tissue activator was measured using a chromogenic substrate, by adding 200 μl of a tissue activator sample, 200 μl of a 0.1M Tris-HCl solution of pH 8.0 containing 0.1M NaCl and 0.02% Tween 80, and 200 μl of a 3 mM S-2251 solution or a 1 mM S-2288 solution. The initial release of p-nitroaniline was measured by a spectrophotometer at 405 nm and 37° C. in a glass cell. The initial velocity of the hydrolytic activity was expressed in terms of ΔmA/min for the chromogenic substrate and Δ%/min for the fluorescent substrate.
For tissue plasminogen activator, H-D-isoleucyl-L-prolyl-L-arginine-p-nitroanilide dihydrochloride (S-2288).

[11] = storage and pH stability of activity in buffer solution; type: physicochemical
Description: The same result was obtained even when 1M NH4 SCN or 0.02% Tween 80 and 0.1M NaCl were incorporated in the buffer solution.
The stability of the plasminogen activator of the present invention was investigated in the pH
hours in a buffer solution range of 1-10 at 4° C. for 24 containing 0.5M NaCl and 0.02% Tween 80.

[12] = hydrolytic activity against chromogenic substrate S-2251; type: biochemical; conditions: activator 100 UKIU/ml; 37° C., 405 nm
Description: as §1
For plasmin, H-D-valyl-L-leucyl-L-lysine-p-nitroanilide dihydrochloride (S-2251);

[13] = Aprotinin 50 KIU/ml, iodoacetamide 10 mM, soybean trypsin 50 mg/ml, L-arginine 100 mM, diisopropyl fluorophosphate 5 mM, 37° C., 1 hour
[14] = diisopropyl fluorophosphate 5 mM, L-arginine 0.1M, Trasylol 50 KIU/ml, iodoacetamide 10 mM, soybean trypsin inhibitor 50 μg/ml

T1 sequence (P00750 36-562): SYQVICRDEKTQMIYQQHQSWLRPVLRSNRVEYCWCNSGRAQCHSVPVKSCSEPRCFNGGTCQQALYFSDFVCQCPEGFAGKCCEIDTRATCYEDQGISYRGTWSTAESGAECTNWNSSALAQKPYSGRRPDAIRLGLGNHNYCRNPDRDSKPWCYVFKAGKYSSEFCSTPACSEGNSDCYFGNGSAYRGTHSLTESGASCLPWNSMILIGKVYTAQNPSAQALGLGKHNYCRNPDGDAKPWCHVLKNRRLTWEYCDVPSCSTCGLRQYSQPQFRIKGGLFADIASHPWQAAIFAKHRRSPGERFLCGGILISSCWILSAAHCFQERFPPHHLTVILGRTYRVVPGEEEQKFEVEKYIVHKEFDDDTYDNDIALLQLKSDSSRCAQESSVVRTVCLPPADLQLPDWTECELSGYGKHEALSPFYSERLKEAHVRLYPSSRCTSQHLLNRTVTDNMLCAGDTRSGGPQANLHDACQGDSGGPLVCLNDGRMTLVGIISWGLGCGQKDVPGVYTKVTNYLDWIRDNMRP
Chain of tissue activator obtained from human kidney (P00750 36-562): as above

Aprotinin [Trasylol]
inhibition of amide-decomposing activity against S-2288 [1, 13]: not inhibited | activity inhibition of the vascular plasminogen activator [2, 14]: no changes

vascular plasminogen activator: purified plasminogen activator from human blood vessel walls; single-chain glycoprotein, molecular weight about 70,000
isoelectric point (pI) of the main band [3]: 7.8 | Specific activity ([4]; Table 1, purification stages of tissue plasminogen activator from blood vessels): 57,400 UKIU/mg | specific activity of the final plasminogen activator ([4]; blood vessel derived, after final purification): 45,000-80,000 IU/mg proteins | adsorption / affinity for anti-urokinase IgG-Sepharose [5]: did not show any affinity | crosslinking of precipitation curves / with antiserum in immunodiffusion [6]: no crosslinking was observed

N=C(N)NCCC[C@H](N)C(=O)O [L-arginine]
inhibition at 100000 µM ([1]; read-out: inhibition of amide-decomposing activity against S-2288): ≤ 26% | inhibition at 50 µg/mL ([2]; read-out: activity inhibition of the vascular plasminogen activator): 20%

urokinase [reference compound]
specific activity of high-purity human urokinase used as immunogen [7]: 202,400 IU/mg | adsorption onto fibrin-Sepharose column [8]: passed through the column | lytic area on fibrin-agar plate ([4]; 10 μl of a 1 IU/ml solution): 156 mm^2 | adsorption / affinity for anti-urokinase IgG-Sepharose [5]: adsorbed strongly

NC(=O)CI [iodoacetamide]
inhibition of amide-decomposing activity against S-2288 [1, 13]: not inhibited | activity inhibition of the vascular plasminogen activator [2, 14]: no changes

kidney-originated activator: purified tissue plasminogen activator obtained from human kidney in Example 1-(6); molecular weight about 72,000
isoelectric point (pI) of the main band [3]: 8.2 | hydrolytic activity to substrates other than S-2251 and S-2288 [9]: did not show hydrolytic activity | adsorption onto fibrin-Sepharose column [8]: adsorbed completely | total poured activity recovered by elution with 2M NH4 SCN from fibrin-Sepharose [8]: at least 90% | Specific activity ([4]; Table 2, purification stages of tissue plasminogen activator obtained from kidneys): 25,700 UKIU/mg | specific activity relative to human kidney dried with acetone ([4]; highly purified form): 30,000-45,000 times | adsorption / affinity for anti-urokinase IgG-Sepharose [5]: passed through the column without adsorption | hydrolytic activity against S-2288 [10]: 70 ΔmA/min | pH range in which the activator was stable ([11]; 4° C., 24 hours, buffer containing 0.5M NaCl and 0.02% Tween 80, pH 1-10 tested): 2-10 | activity after storage ([11]; 4° C., buffer solution of pH 7.4, 2 weeks): did not give any activity reduction | reduction of activity ([11]; pH 1.0, 4° C., 24 hours, 0.5M NaCl and 0.02% Tween 80): 70% | hydrolytic activity against S-2251 [12]: 88 ΔmA/min | crosslinking of precipitation curves / with antiserum in immunodiffusion [6]: ready crosslinking reaction

B1: soybean trypsin inhibitor: soybean trypsin inhibitor used as protease inhibitor (protein, UniProt P01070 25-205, looked up)
Trypsin inhibitor A: DFVLDNEGNPLENGGTYYILSDITAFGGIRAAPTGNERCPLTVVQSRNELDKGIGTIISSPYRIRFIAEGHPLSLKFDSFAVIMLCVGIPTEWSVVEDLPEGPAVKIGENKDAMDGWFRLERVSDDEFNNYKLVFCPQQAEDDKCGDIGISIDHDDGTRRLVVSKNKPLVVQFQKLDKESL
inhibition of amide-decomposing activity against S-2288 [1]: not inhibited | activity inhibition of the vascular plasminogen activator [2]: no changes

From patent publication US4957864A, “Novel plasminogen activator and its preparation process” (Mitsui Toatsu Chemicals, Incorporated, priority 1982, dated 1990)
